Read-outs that look alike come from different tables or passages of the source.
Legend:
[1] = Hepatic impairment study: atogepant plasma PK; type: in vivo, human; details: for AUC(0-t) / AUC(0-inf) / Cmax / Tmax / half-life / Vd/F: human, plasma, 60 mg; for Vd/F: read-out: Vz/F
Description: A multicenter, non-randomized, open-label, parallel-group, single-dose study was carried out to evaluate the PK, safety, and tolerability profiles of atogepant in participants with impaired hepatic function and matched healthy participants with normal hepatic function after a single 60-mg oral dose of atogepant. The primary outcome measures were PK parameters of atogepant derived from plasma concentrations. Safety measures were AEs, clinical laboratory determinations, vital sign parameters, electrocardiographic results, and physical examination findings. […] PK blood samples were collected for up to 72 hours after dose administration. The total duration of study participation for each participant was 5 days (Day −1 to Day 4), excluding the screening visit. […] Participants with moderate hepatic impairment were enrolled after 4 participants with mild hepatic impairment completed the study; participants with severe hepatic impairment were enrolled after 4 participants with moderate hepatic impairment completed the study. Participants with normal hepatic function were recruited after all patients with hepatic impairment were enrolled in the study. The safety and tolerability of atogepant was established in each group before the subsequent group was enrolled. Participants were enrolled into four groups: Group I (Mild Hepatic Impairment); Group II (Moderate Hepatic Impairment); Group III (Severe Hepatic Impairment); and Group IV (Normal Hepatic Impairment). Participants with normal hepatic function were recruited after the participants with hepatic impairment were enrolled in the study so that participants could be matched as closely as possible by age range, weight range, and gender among groups. Participants were matched specifically according to rage range, not exceeding 5 years between the means of the normal group and the 3 impaired hepatic function groups combined; weight range, which deviated <20% between the means of the normal group and the 3 impaired hepatic function groups combined; and gender, as much as possible to match the ratio of the normal group to the 3 impaired hepatic function groups combined. Participants received a single, oral, 60 mg tablet of atogepant. Each participant received only one dose of the study intervention. Participants received the atogepant tablet with 240 mL of water at the study center under fasted conditions. Following dose administration, participants continued their fast and remained seated upright and awake for 4 hours. Sampling for atogepant plasma concentrations was done starting on Day 1 at 0 hour (predose) and at 0.5, 1, 1.5, 2, 3, 4, 6, 8, 12, 16, 24, 36, 48, and 72 hours post dose.

[2] = target: CYP2B6 (Homo sapiens, UniProt P20813); test: In vitro CYP inhibition; type: in vitro ADME; details: clinically relevant concentrations
[3] = target: OAT1 (Homo sapiens, UniProt Q4U2R8); test: Transporter substrate; type: in vitro ADME
[4] = target: MATE 1 (Homo sapiens, UniProt Q96FL8); test: Transporter inhibition; type: in vitro ADME
[5] = target: UGT1A1 (Homo sapiens, UniProt P22309); test: Enzyme inhibition; type: in vitro ADME; details: clinically relevant concentrations
[6] = Atogepant-topiramate interaction study, cohort 1: atogepant steady-state PK; type: in vivo, human; details: for AUC / Cmax / Tmax: both sexes, human, plasma; for Tmax: read-out: Tmax,ss (median)
Description: The duration of the study was 25 days (±2 days), which included day −1 through the follow-up visit and excluded the screening period. The screening period was up to 21 days before day 1 and the intervention period was a total of 19 days, at which point the end of dosing visit was conducted. […] Clinical laboratory tests were performed at the follow-up visit, which was conducted on day 24 (7 [±2] days after the last dose of study medication. […] The primary endpoints were area under the plasma concentration-time curve during dosing interval at steady state (AUC0-tau,ss) and maximum plasma drug concentration at steady state (Cmax,ss) of atogepant and topiramate when coadministered and when administered alone. Additional PK parameters included time of maximum plasma drug concentration at steady state (Tmax,ss), average plasma drug concentration at steady state (Cavg,ss), and minimum plasma drug concentration at steady state (Cmin,ss) of topiramate and atogepant when coadministered and when administered alone.

[7] = po, mild hepatic impairment, single 60 mg oral dose
[8] = po, moderate hepatic impairment, single 60 mg oral dose
[9] = po, normal hepatic function, single 60 mg oral dose
[10] = po, severe hepatic impairment, single 60 mg oral dose
[11] = mild hepatic impairment vs normal hepatic function
[12] = mild hepatic impairment, single 60 mg oral dose
[13] = moderate hepatic impairment vs normal hepatic function
[14] = moderate hepatic impairment, single 60 mg oral dose
[15] = normal hepatic function, single 60 mg oral dose
[16] = severe hepatic impairment vs normal hepatic function
[17] = severe hepatic impairment, single 60 mg oral dose
[18] = atogepant 60 mg QD + topiramate 100 mg BID, day 17
[19] = atogepant 60 mg QD alone, day 7

OAT1, sequence (Q4U2R8 whole entry): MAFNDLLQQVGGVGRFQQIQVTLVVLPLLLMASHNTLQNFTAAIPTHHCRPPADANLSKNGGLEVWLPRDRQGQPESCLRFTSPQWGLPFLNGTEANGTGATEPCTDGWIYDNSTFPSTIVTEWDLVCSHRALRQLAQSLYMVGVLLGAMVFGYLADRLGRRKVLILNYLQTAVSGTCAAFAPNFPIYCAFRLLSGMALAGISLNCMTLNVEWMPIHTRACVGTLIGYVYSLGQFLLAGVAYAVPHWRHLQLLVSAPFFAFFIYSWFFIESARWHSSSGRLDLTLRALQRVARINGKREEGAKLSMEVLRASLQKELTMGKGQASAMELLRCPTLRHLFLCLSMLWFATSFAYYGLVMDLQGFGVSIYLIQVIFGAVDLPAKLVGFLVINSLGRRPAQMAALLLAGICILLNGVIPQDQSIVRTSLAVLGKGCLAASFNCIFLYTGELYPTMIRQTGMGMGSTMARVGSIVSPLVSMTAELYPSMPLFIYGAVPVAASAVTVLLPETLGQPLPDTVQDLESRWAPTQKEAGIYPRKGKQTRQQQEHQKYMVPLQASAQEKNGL
CYP2B6, sequence (P20813 whole entry): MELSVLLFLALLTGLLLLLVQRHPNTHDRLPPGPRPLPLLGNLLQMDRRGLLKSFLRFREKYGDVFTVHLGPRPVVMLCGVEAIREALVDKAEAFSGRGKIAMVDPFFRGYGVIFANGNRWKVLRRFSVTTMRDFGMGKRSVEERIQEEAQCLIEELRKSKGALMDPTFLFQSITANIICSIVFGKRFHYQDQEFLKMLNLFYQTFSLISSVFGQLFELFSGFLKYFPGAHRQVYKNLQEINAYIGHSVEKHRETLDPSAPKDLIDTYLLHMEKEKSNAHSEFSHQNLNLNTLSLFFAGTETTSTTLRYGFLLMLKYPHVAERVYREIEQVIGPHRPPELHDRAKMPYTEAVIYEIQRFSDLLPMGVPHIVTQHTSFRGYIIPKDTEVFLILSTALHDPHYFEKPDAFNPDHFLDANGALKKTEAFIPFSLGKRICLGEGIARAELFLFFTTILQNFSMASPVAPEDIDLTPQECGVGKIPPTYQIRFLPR
UGT1A1, sequence (P22309 26-533): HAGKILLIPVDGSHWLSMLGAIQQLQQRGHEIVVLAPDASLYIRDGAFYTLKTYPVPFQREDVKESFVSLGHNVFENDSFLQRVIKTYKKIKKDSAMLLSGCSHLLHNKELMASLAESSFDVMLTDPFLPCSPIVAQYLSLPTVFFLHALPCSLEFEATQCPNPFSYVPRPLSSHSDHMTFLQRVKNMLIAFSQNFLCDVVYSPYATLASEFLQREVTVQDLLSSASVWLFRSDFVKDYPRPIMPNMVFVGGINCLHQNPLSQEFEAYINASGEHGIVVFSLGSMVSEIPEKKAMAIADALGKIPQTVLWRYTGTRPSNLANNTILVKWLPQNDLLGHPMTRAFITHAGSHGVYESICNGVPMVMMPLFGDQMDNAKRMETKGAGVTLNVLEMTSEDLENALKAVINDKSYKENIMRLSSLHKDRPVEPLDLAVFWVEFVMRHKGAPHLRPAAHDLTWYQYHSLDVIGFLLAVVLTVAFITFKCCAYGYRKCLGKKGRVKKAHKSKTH
MATE 1, sequence (Q96FL8 whole entry): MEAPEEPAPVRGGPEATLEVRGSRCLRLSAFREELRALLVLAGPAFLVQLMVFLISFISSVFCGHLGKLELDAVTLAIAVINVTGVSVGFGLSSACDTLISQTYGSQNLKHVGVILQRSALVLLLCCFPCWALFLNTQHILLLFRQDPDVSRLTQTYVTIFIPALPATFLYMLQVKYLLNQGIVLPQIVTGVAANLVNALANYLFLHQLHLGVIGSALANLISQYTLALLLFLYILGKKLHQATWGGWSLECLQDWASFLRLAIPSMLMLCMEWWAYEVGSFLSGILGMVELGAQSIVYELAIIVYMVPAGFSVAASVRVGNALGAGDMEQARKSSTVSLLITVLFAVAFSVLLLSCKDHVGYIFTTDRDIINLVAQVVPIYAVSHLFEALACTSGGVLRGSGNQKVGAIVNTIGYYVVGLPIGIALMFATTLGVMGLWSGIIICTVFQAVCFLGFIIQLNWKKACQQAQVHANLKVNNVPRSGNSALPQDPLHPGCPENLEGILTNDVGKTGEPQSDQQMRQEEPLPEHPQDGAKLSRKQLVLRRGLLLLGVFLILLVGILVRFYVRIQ

Work on `C[C@@H]1[C@H](c2c(F)ccc(F)c2F)C[C@H](NC(=O)c2cnc3c(c2)C[C@@]2(C3)C(=O)Nc3ncccc32)C(=O)N1CC(F)(F)F` [atogepant, (3′S)-N-[(3S,5S,6R)-6-methyl-2-oxo-1-(2,2,2-trifluoroethyl)-5-(2,3,6-trifluorophenyl)piperidin-3-yl]-2′-oxo-1′,2′,5,7-tetrahydrospiro[cyclopenta[b]pyridine-6,3′-pyrrolo[2,3-b]pyridine]-3-carboxamide] yielded an AUC(0-t) ([1]; oral, mild hepatic impairment, read-out: AUC0-t Geometric Least Squares Mean, Test) of 3250 ng·h/mL, an AUC(0-inf) ([1]; oral, mild hepatic impairment, read-out: AUC0-∞ Geometric Least Squares Mean, Test) of 3270 ng·h/mL and a Cmax ([1]; oral, mild hepatic impairment, read-out: Cmax Geometric Least Squares Mean, Test) of 587 ng/mL. For the same compound, the AUC(0-t) ([1]; oral, moderate hepatic impairment, read-out: AUC0-t Geometric Least Squares Mean, Test) was 2980 ng·h/mL, the AUC(0-inf) ([1]; oral, moderate hepatic impairment, read-out: AUC0-∞ Geometric Least Squares Mean, Test) was 3030 ng·h/mL and the Cmax ([1]; oral, moderate hepatic impairment, read-out: Cmax Geometric Least Squares Mean, Test) was 475 ng/mL. The AUC(0-t) ([1]; oral, normal hepatic function, read-out: AUC0-t Geometric Least Squares Mean, Reference) was 2610 ng·h/mL, the AUC(0-inf) ([1]; oral, normal hepatic function, read-out: AUC0-∞ Geometric Least Squares Mean, Reference) was 2630 ng·h/mL and the Cmax ([1]; oral, normal hepatic function, read-out: Cmax Geometric Least Squares Mean, Reference) was 539 ng/mL. It also gave an AUC(0-t) ([1]; oral, severe hepatic impairment, read-out: AUC0-t Geometric Least Squares Mean, Test) of 3600 ng·h/mL, an AUC(0-inf) ([1]; oral, severe hepatic impairment, read-out: AUC0-∞ Geometric Least Squares Mean, Test) of 3630 ng·h/mL and a Cmax ([1]; oral, severe hepatic impairment, read-out: Cmax Geometric Least Squares Mean, Test) of 515 ng/mL. For the same compound, the Tmax ([1]; po, mild hepatic impairment vs normal hepatic function, read-out: difference in median Tmax) was 0 h, the half-life [1, 7] was 8.7 ± 4.06 h and the AUC(0-t) ([1]; po, mild hepatic impairment, single 60 mg oral dose, read-out: AUC0-t) was 3470 ± 1420 ng·h/mL. For the same compound, the AUC(0-inf) ([1]; po, mild hepatic impairment, single 60 mg oral dose, read-out: AUC0-∞) was 3500 ± 1430 ng·h/mL, the Cmax ([1]; po, mild hepatic impairment, single 60 mg oral dose, read-out: Cmax) was 666 ± 372 ng/mL and the Tmax ([1]; po, mild hepatic impairment, single 60 mg oral dose, read-out: Tmax, median (range)) was 1.76 h. The Vd/F [1, 7] was 249 ± 161 L, the Tmax ([1]; po, moderate hepatic impairment vs normal hepatic function, read-out: difference in median Tmax) was 0.25 h and the half-life [1, 8] was 11.9 ± 7.6 h. For the same compound, the AUC(0-t) ([1]; po, moderate hepatic impairment, single 60 mg oral dose, read-out: AUC0-t) was 3270 ± 1690 ng·h/mL, the AUC(0-inf) ([1]; po, moderate hepatic impairment, single 60 mg oral dose, read-out: AUC0-∞) was 3310 ± 1680 ng·h/mL and the Cmax ([1]; po, moderate hepatic impairment, single 60 mg oral dose, read-out: Cmax) was 529 ± 227 ng/mL. For the same compound, the Tmax ([1]; po, moderate hepatic impairment, single 60 mg oral dose, read-out: Tmax, median (range)) was 1.5 h, the Vd/F [1, 8] was 404 ± 406 L and the half-life [1, 9] was 9.4 ± 3.24 h. It also gave an AUC(0-t) ([1]; po, normal hepatic function, single 60 mg oral dose, read-out: AUC0-t) of 2760 ± 919 ng·h/mL, an AUC(0-inf) ([1]; po, normal hepatic function, single 60 mg oral dose, read-out: AUC0-∞) of 2780 ± 924 ng·h/mL and a Cmax ([1]; po, normal hepatic function, single 60 mg oral dose, read-out: Cmax) of 589 ± 248 ng/mL. It also gave a Tmax ([1]; po, normal hepatic function, single 60 mg oral dose, read-out: Tmax, median (range)) of 1.75 h, a Vd/F [1, 9] of 301 ± 77 L and a Tmax ([1]; po, severe hepatic impairment vs normal hepatic function, read-out: difference in median Tmax) of 0.75 h. It also gave a half-life [1, 10] of 7.54 ± 2.95 h, an AUC(0-t) ([1]; po, severe hepatic impairment, single 60 mg oral dose, read-out: AUC0-t) of 3800 ± 1400 ng·h/mL and an AUC(0-inf) ([1]; po, severe hepatic impairment, single 60 mg oral dose, read-out: AUC0-∞) of 3840 ± 1440 ng·h/mL. The Cmax ([1]; po, severe hepatic impairment, single 60 mg oral dose, read-out: Cmax) was 525 ± 197 ng/mL, the Tmax ([1]; po, severe hepatic impairment, single 60 mg oral dose, read-out: Tmax, median (range)) was 1 h and the Vd/F [1, 10] was 177 ± 47.5 L. For the same compound, the “higher AUC (total atogepant exposure increase)” value ([1]; mild hepatic impairment (Child-Pugh Class A) vs normal hepatic function) was 24%, the “AUC0-t Ratio of Geometric Means Test/Reference” value [1, 11] was 124.40 and the “AUC0-∞ Ratio of Geometric Means Test/Reference” value [1, 11] was 124.31. The “Cmax Ratio of Geometric Means Test/Reference” value [1, 11] was 108.97, the “change in maximum plasma concentration” value [1, 11] was “+9%” and the “higher Cmax” value [1, 11] was 9%. It also gave an AUC % [1, 12] of 0.73 ± 0.42%, a CL/F [1, 12] of 19.42 ± 6.60 L/h and a λz [1, 12] of 0.0906 ± 0.0300 h⁻¹. The “change in the PK of atogepant” value ([1]; mild, moderate, or severe hepatic impairment) was “no clinically relevant change”, the “higher AUC (total atogepant exposure increase)” value ([1]; moderate hepatic impairment (Child-Pugh Class B) vs normal hepatic function) was 15% and the “AUC0-t Ratio of Geometric Means Test/Reference” value [1, 13] was 113.96. For the same compound, the “AUC0-∞ Ratio of Geometric Means Test/Reference” value [1, 13] was 115.00, the “Cmax Ratio of Geometric Means Test/Reference” value [1, 13] was 88.17 and the “change in maximum plasma concentration” value [1, 13] was −12%. The “lower Cmax” value [1, 13] was 12%, the AUC % [1, 14] was 1.70 ± 1.44% and the CL/F [1, 14] was 21.33 ± 8.06 L/h. It also gave a λz [1, 14] of 0.0781 ± 0.0431 h⁻¹, an AUC % [1, 15] of 0.81 ± 0.23% and a CL/F [1, 15] of 24.20 ± 9.42 L/h. The λz [1, 15] was 0.0819 ± 0.0289 h⁻¹, the “increase in AUC (total atogepant exposure increase)” value ([1]; severe hepatic impairment (Child-Pugh Class C) vs normal hepatic function) was 38% and the “AUC0-t Ratio of Geometric Means Test/Reference” value [1, 16] was 137.88. The “AUC0-∞ Ratio of Geometric Means Test/Reference” value [1, 16] was 137.97, the “Cmax Ratio of Geometric Means Test/Reference” value [1, 16] was 95.71 and the “change in maximum plasma concentration” value [1, 16] was −4%. The “decrease in Cmax” value [1, 16] was 4%, the AUC % [1, 17] was 0.87 ± 0.65% and the CL/F [1, 17] was 17.33 ± 5.40 L/h. For the same compound, the λz [1, 17] was 0.0998 ± 0.0242 h⁻¹, the “inhibition of CYP2B6” value [2] was “not an inhibitor” and the “substrate of OAT1” value [3] was “substrate”. For the same compound, the “inhibition of MATE 1” value [4] was “weak inhibitor”, the “inhibition of UGT1A1” value [5] was “does not inhibit” and the “Cavg,ss” value [6, 18] was 95.8 ng/mL. For the same compound, the “Cmin,ss” value [6, 18] was 6.3 ng/mL, the “Cavg,ss” value [6, 19] was 125.6 ng/mL and the “Cmin,ss” value [6, 19] was 10.2 ng/mL. For the same compound, the AUC ([6]; 60 mg, Atogepant Alone, read-out: AUC0-tau,ss Geometric LSM) was 2720 ng·h/mL, the Cmax ([6]; 60 mg, Atogepant Alone, read-out: Cmax,ss Geometric LSM) was 535 ng/mL and the AUC ([6]; 60 mg, atogepant 60 mg QD alone, day 7, read-out: AUC0-tau,ss) was 3020 ng·h/mL. For the same compound, the Cmax ([6]; 60 mg, atogepant 60 mg QD alone, day 7, read-out: Cmax,ss) was 626 ng/mL, the AUC ([6]; Atogepant and Topiramate, read-out: AUC0-tau,ss Geometric LSM) was 2030 ng·h/mL and the Cmax ([6]; Atogepant and Topiramate, read-out: Cmax,ss Geometric LSM) was 406 ng/mL. It also gave an AUC ([6]; atogepant 60 mg QD + topiramate 100 mg BID, day 17, read-out: AUC0-tau,ss) of 2300 ng·h/mL, a Cmax ([6]; atogepant 60 mg QD + topiramate 100 mg BID, day 17, read-out: Cmax,ss) of 491 ng/mL and a Tmax [6, 18] of 2 h. For the same compound, the Tmax [6, 19] was 2 h, the “reduction of atogepant AUC0-tau,ss” value ([6]; coadministered with topiramate) was 25% and the “reduction of atogepant Cmax,ss” value ([6]; coadministered with topiramate) was 24%.

From patent publication US12350259B2, “Methods of treating migraine” (Allergan Pharmaceuticals International Limited, priority 2021, dated 2025)
